# Data taken from patent US6287813A, “Antibiotic-based gene regulation system” (Cistronics Cell Technology GmbH, priority 1999, dated 2001).
# Key:
# [1] = target: T1, TET-responsive system (tTA/PhCMV*-1) (Escherichia coli, UniProt P04483); assay: SEAP reporter assay, CHO-TWIN clones transfected with pMF111 (PhCMV*-1-SEAP); assay type: cell-based; conditions: CHO-TWIN1108 + pMF111; for SEAP Production (%): crossregulation
# T1 construct: expressed in transfected cells; host or cells: CHO-K1 clones CHO-TWIN195 and CHO-TWIN1108 (pTWIN1)
# Text: (§1) pTWIN contains both PIT and tTA in a PSV40 -driven dicistronic configuration. For construction of pTWIN, PIT was first transferred from pMF156 as an EcoRI/HindIII fragment to the corresponding sites of pSBC-1 (EcoRI/HindIII; resulting in pMF167) before the PIT expression unit could be fused to the tTA expression unit contained on pSBC2-tTA (Fussenegger et al., 1997, supra) via SspI/NotI sites. Thus, pTWIN contains the dicistronic PSV40 -PIT-IRES-tTA-pA expression cassette.
# (§2) Chinese hamster ovary cells (CHO-K1, ATCC: CCL 61), Baby hamster kidney cells (BHK-21, ATCC: CRL-8544), and HeLa cells (ATCC: CRL-7923) as well as stable cell lines CHO-PIT1, CHO-PIT2, CHO-TWIN195, CHO-TWIN1108 and CHO-PIT1-SEAP were cultured as described before (Fussenegger et al., 1998, Nat. Biotechnol. 16,468-472) in the presence of appropriate antibiotics: G418 400 μg/ml; zeocin 100 μg/ml. Optimized CaPO4 protocols were used for high efficiency transient transfection of all cell lines (id). Transient transfected cells were routinely analyzed after 48 h for GFP or SEAP expression using fluorescence microscopy and p-nitrophenolphosphate-based light absorbance timecourse, respectively, as described before (Fussenegger et al., 1998, Nat. Biotechnol. 16, 468-472; Berger et al., 1988, Gene 66, 1-10 b). For construction of stable CHO-PIT and CHO-TWIN cell lines, CHO-K1 was cotransfected either with pMF156 or pTWIN1 and pSV2neo carrying the G418 resistance gene. CHO-PIT1-SEAP was constructed by cotransfection of pMF172 and pZeoSV2 (Invitrogen). For assessment of dose-response characteristics of PPIR -regulated gene expression, CHO-PIT1-SEAP were cultured at cell densities of 150,000/ml for 48 at various PI concentrations. The mixed populations were cloned using FACS-mediated single-cell-sorting (FACStar^Plus; Beckton Dickinson). Gel retardation assay were performed as described (Salah-Bey et al., 1995, supra) using Pip purified from an overproducing strain of E. coli. Pip (0.02 pmol) was titrated with a range of antibiotic concentrations in a reaction volume of 20 μl. Protein solutions were pre-incubated at room temperature for 15 min. in the absence or presence of PI or its derivative quinupristin in a buffer containing 10 mM Tris (pH 7.8), 10 mM MgCl2, 300 mM NaCl, 2 mM DTT and 10% glycerol. An EcoRI-HindII PPTR fragment (0.02 pmol) containing three Pip binding sites (radiolabelled using α-^32 P)dATP was added and incubated for 15 min. To minimize nonspecific protein binding and increase protein stability, 2 μg of poly dIdC and 20 μg BSA were included in the incubation mix. Protein-DNA complexes were separated on 5% polyacrylamide,TBE gels and visualized by autoradiography.
# (§3) CHO-TWIN195 and CHO-TWIN1108 were transfected under identical conditions with the isogenic plasmids containing the SEAP gene under control of the tTA-activated promoter PhCMV*-1 (pMF111) or the PIT-activated promoter PPIR (pMF172). Transfected cells were grown for 48 h in the presence or absence of either antibiotic prior to assay of SEAP activity.
# (§4) Table 6: Comparison of the regulation performance of streptogramin- (PI and virginiamycin; VIR) and tetracycline-based gene regulation systems. The two cell clones CHO-TWIN195 and CHO-TWIN1108 containing both pristinamycin- and tetracycline-dependent transactivators were transfected with either the streptogramin-responsive or the TET-responsive SEAP reporter plasmids pMF172 (PPIR -SEAP) and pMF111 (PhCMV*-1 -SEAP), respectively, and the relative SEAP production was assessed. SEAP production values are normalized by SEAP activities under the antibiotic-free, active promoter conditions as follows: pMF172 in CHO-TWIN195:1.7 mU/ml; in CHO-TWIN1108 : 1.8 mU/ml. pMF111 in CHO-TWIN195 : 18.6 mU/ml; in CHO-TWIN1108 : 19.2 mU/ml.
# (§5) Table 7: Compatibility of the streptogramin- and tetracycline-based gene regulation systems. Crossregulation of pristinamycin (PI) and the tetracyclines doxycycline (DOX) and tetracycline (TET). […]
# PIT/PPIR system = target: T2, PIT/PPIR system (Streptomyces coelicolor, UniProt Q9ADN3); assay: SEAP reporter assay, CHO-TWIN clones transfected with pMF172 (PPIR-SEAP); assay type: cell-based; conditions: for SEAP Production (%): 48 h, no inducer = 100
# T2 construct: pMF156/pTWIN in CHO cells, PPIR-SEAP or GFP reporter
# T2 sequence (Q9ADN3 1-252): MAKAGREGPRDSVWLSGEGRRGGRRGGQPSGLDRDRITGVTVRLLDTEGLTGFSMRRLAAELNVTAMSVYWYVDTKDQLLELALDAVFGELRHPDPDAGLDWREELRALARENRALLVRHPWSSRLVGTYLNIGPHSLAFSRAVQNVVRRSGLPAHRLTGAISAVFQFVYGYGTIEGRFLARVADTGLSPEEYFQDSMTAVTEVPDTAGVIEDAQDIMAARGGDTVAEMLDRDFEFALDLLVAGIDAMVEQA
# Text: as §1, §2, §3, §4, §5
# [2] = system: PIT-dependent promoters PPIR, PPIR2, PPIR3; assay: SEAP expression from modified PI-responsive promoters (PPIR, PPIR2, PPIR3); assay type: cell-based, Streptomyces coelicolor
# Text: The naturally occurring Pptr sequence contains only three distinct Pip binding sites which could accommodate PIT. In order to enhance maximal expression from streptogramin-responsive system, we constructed PI-responsive promoters with two (PPIR2) and three (PPIR3) ptr binding motifs with a total of 6 and 9 Pip binding sites, respectively.
# Both DNA fragments were digested with AatII and Sse8387I (corresponding restriction sites are shown in bold) and ligated to the corresponding sites of pMF172 (PPIR -SEAP; AatII/Sse8387I) thereby replacing the single Pip binding sequence (Pptr of S. pristinaespiralis; Salah-Bey et al., 1995; Salah-Bey and Thompson, 1995) to result in plasmids pMF198 (PPIR2 -SEAP) and pMF199 (PPIR3 -SEAP). […]
# Chain of PIT-dependent promoters PPIR, PPIR2, PPIR3 (as listed by the source): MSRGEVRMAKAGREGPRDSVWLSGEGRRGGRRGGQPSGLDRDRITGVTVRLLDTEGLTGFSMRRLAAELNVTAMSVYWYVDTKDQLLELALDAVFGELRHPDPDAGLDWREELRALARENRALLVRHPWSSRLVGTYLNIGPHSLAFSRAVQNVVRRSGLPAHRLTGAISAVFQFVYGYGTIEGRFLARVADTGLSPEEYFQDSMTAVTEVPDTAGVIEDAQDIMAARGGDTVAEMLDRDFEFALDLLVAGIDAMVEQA
# T1 sequence (P04483 whole entry, added parts left off): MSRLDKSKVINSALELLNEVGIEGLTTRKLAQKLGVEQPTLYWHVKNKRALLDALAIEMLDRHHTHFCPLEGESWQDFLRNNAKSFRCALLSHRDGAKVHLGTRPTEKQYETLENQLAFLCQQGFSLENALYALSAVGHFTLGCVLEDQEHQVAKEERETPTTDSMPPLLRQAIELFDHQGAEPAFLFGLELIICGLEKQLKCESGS
substance,measurement,setting,value
pristinamycin I [PI],Effect on expression from the TET-responsive system,[1],no effect
same,SEAP Production (%),[1]; 2 μg/ml,94.8 ± 5.3%
same,SEAP Production (%),"[1]; 10 μg/ml, 2880 min",92.4 ± 7.9%
same,Induction factor (IF; ratio of maximal expression level to antibiotic-repressed expression level),PIT/PPIR system; CHO-TWIN195 + pMF172,12
same,SEAP Production (%),PIT/PPIR system; CHO-TWIN195 + pMF172,8.84 ± 0.01%
same,Induction factor (IF; ratio of maximal expression level to antibiotic-repressed expression level),PIT/PPIR system; CHO-TWIN1108 + pMF172,45
same,SEAP Production (%),PIT/PPIR system; CHO-TWIN1108 + pMF172,2.2 ± 0.4%
same,SEAP expression in the presence of PI,[2]; PPIR2 -SEAP (pMF198),0.073 ± 0.004
same,SEAP expression in the presence of PI,[2]; PPIR2 -SEAP (pMF199) as printed,0.09 ± 0.008
same,SEAP expression in the presence of PI,[2]; PPIR -SEAP (pMF172),0.04 ± 0.019
